Results as given in the NIST ThermoML archive (doi:10.1007/s10765-010-0886-6).
Values joined by “and” are separate entries in the source; they are usually repeats but may differ in a detail not shown here. Equal values may be shown once.

Conditions: gamma-densimeter

Fc1cc(F)c(F)c(F)c1F [pentafluorobenzene]
mass density
Conditions | Gas | Liquid
293.47 K | – | 1525.2 kg/m3
314 K | 1.13 kg/m3 | 1483.8 kg/m3
334 K | – | 1441.8 kg/m3
353.98 K | – | 1399.8 kg/m3
374.24 K | – | 1353.6 kg/m3
393.95 K | 15.9 kg/m3 | 1307.6 kg/m3
413.94 K | 24.8 kg/m3 and 24.9 kg/m3 | 1257.5 kg/m3
413.95 K | 24.7 kg/m3 | –
433.98 K | 38.6 kg/m3 | 1203 kg/m3
454.02 K | 58.3 kg/m3 | 1142.5 kg/m3
473.98 K | 87.1 kg/m3 | 1072.2 kg/m3
493.99 K | 131.1 kg/m3 | 986.7 kg/m3
504.08 K | 163.1 kg/m3 | 933.6 kg/m3
514.2 K | 208.7 kg/m3 | 866.1 kg/m3
524.52 K | 287.7 kg/m3 | 764.6 kg/m3

Conditions | Critical temperature [K]
Liquid | 531.04
